Values quoted from earlier work as cited in article PMC9899610 (Cancer Science, 2022).
Where two headings read alike, the source gives them in different places.

Tested on: patients with advanced or metastatic cholangiocarcinoma; urothelial carcinoma
Conditions: cited from earlier work
[1] = patients with advanced or metastatic cholangiocarcinoma

COc1cc(OC)cc(N(CCNC(C)C)c2ccc3ncc(-c4cnn(C)c4)nc3c2)c1 [erdafitinib]
Hyperphosphatemia, patients (patients with urothelial carcinoma): 77%
Patients who discontinued treatment because of retinal detachment (phase II study): 13%

CCN1CCN(c2ccc(Nc3cc(N(C)C(=O)Nc4c(Cl)c(OC)cc(OC)c4Cl)ncn3)cc2)CC1 [infigratinib]
Retinal AEs requiring dose interruption or treatment discontinuation: two discontinuations
Hyperphosphatemia, patients [1]: 77%

CCN1C(=O)N(c2c(F)c(OC)cc(OC)c2F)Cc2cnc3[nH]c(CN4CCOCC4)cc3c21 [pemigatinib]
Retinal AEs requiring dose interruption or treatment discontinuation: one dose interruption
Hyperphosphatemia, patients [1]: 60%
